Laboratory results published in US10246466B2, “Diaryl macrocycles as modulators of protein kinases” (TP THERAPEUTICS, INC., priority 2014, dated 2019).

Assays:
[1] = test system: T cell lymphoma Karpas-299 cell line (harboring endogenous NPM-ALK fusion gene); assay: Karpas-299 cell proliferation assay (CellTiter-Glo); format: cell-based; details: Homo sapiens, 72 hours incubation, read-out: Karpas 299 cell proli. IC50
ALK = ALK (Homo sapiens (Human), UniProt Q9UM73); assay: KINOMEscan kinase binding assay (DiscoveRx)
Experimental: (§1) For most assays, kinase-tagged T7 phage strains were prepared in an E. coli host derived from the BL21 strain. E. coli were grown to log-phase and infected with T7 phage and incubated with shaking at 32° C. until lysis. The lysates were centrifuged and filtered to remove cell debris. The remaining kinases were produced in HEK-293 cells and subsequently tagged with DNA for qPCR detection. […] The liganded beads were blocked with excess biotin and washed with blocking buffer (SeaBlock (Pierce), 1% BSA, 0.05% Tween 20, 1 mM DTT) to remove unbound ligand and to reduce nonspecific binding. […] All reactions were performed in polystyrene 96-well plates in a final volume of 0.135 mL. […] The kinase concentration in the eluates was measured by qPCR.

JAK2 = JAK2 (Homo sapiens (Human), UniProt O60674); assay: KINOMEscan kinase binding assay (DiscoveRx)
Experimental: as §1

[2] = test system: Essential thrombocythemia cell line SET-2 cells (harboring endogenous JAK2 point mutation); assay: SET-2 cell proliferation assay (CellTiter-Glo); format: cell-based; details: Homo sapiens, 72 hours incubation, read-out: SET2 cell proli. IC50
[3] = test system: Colorectal cell line KM12 (harboring endogenous TPM3-TRKA fusion gene); assay: KM12 cell proliferation assay (CellTiter-Glo); format: cell-based; details: Homo sapiens, 72 hours incubation, read-out: KM 12 cell prolif. IC50
Experimental: (§2) Colorectal cell lines KM 12 (harboring endogenous TPM3-TRKA fusion gene) cells were cultured in DMEM medium, supplemented with 10% fetal bovine serum and 100 U/mL of penicillin/streptomycin. 5000 cells were seeded in 384 well white plate for 24 hours before compounds treatment. Cell proliferation was measured using CellTiter-Glo luciferase-based ATP detection assay (Promega) following the manufactures's protocol after 72 hours incubation. IC50 determinations were performed using GraphPad Prism software (GraphPad, Inc., San Diego, Calif.).
as §2, with “Alternatively: Colorectal” for “Colorectal”, “line KM12” for “lines KM 12”, “penicillin/streptomycin. […]” for “penicillin/streptomycin.”

TRKA = TRKA (Homo sapiens (Human), UniProt P04629); assay: KINOMEscan kinase binding assay (DiscoveRx)
Experimental: (§3) Kinase binding assays were performed at DiscoveRx using the general KINOMEscan Kd Protocol (Fabian, M. A. et al., “A small molecule-kinase interaction map for clinical kinase inhibitors,” Nat. Biotechnol. 2005, 23(3):329-36). For most assays, kinase-tagged T7 phage strains were prepared in an E. coli host derived from the BL21 strain. E. coli were grown to log-phase and infected with T7 phage and incubated with shaking at 32° C. until lysis. The lysates were centrifuged and filtered to remove cell debris. The remaining kinases were produced in HEK-293 cells and subsequently tagged with DNA for qPCR detection. Streptavidin-coated magnetic beads were treated with biotinylated small molecule ligands for 30 minutes at room temperature to generate affinity resins for kinase assays. The liganded beads were blocked with excess biotin and washed with blocking buffer (SeaBlock (Pierce), 1% BSA, 0.05% Tween 20, 1 mM DTT) to remove unbound ligand and to reduce nonspecific binding. […] All reactions were performed in polystyrene 96-well plates in a final volume of 0.135 mL. […] The beads were then re-suspended in elution buffer (1×PBS, 0.05% Tween 20, 0.5 μM non-biotinylated affinity ligand) and incubated at room temperature with shaking for 30 minutes. The kinase concentration in the eluates was measured by qPCR.

ROS1 = ROS1 (Homo sapiens (Human), UniProt P08922); assay: KINOMEscan kinase binding assay (DiscoveRx)
Experimental: as §3

Chain of ROS1 (P08922 28-2347): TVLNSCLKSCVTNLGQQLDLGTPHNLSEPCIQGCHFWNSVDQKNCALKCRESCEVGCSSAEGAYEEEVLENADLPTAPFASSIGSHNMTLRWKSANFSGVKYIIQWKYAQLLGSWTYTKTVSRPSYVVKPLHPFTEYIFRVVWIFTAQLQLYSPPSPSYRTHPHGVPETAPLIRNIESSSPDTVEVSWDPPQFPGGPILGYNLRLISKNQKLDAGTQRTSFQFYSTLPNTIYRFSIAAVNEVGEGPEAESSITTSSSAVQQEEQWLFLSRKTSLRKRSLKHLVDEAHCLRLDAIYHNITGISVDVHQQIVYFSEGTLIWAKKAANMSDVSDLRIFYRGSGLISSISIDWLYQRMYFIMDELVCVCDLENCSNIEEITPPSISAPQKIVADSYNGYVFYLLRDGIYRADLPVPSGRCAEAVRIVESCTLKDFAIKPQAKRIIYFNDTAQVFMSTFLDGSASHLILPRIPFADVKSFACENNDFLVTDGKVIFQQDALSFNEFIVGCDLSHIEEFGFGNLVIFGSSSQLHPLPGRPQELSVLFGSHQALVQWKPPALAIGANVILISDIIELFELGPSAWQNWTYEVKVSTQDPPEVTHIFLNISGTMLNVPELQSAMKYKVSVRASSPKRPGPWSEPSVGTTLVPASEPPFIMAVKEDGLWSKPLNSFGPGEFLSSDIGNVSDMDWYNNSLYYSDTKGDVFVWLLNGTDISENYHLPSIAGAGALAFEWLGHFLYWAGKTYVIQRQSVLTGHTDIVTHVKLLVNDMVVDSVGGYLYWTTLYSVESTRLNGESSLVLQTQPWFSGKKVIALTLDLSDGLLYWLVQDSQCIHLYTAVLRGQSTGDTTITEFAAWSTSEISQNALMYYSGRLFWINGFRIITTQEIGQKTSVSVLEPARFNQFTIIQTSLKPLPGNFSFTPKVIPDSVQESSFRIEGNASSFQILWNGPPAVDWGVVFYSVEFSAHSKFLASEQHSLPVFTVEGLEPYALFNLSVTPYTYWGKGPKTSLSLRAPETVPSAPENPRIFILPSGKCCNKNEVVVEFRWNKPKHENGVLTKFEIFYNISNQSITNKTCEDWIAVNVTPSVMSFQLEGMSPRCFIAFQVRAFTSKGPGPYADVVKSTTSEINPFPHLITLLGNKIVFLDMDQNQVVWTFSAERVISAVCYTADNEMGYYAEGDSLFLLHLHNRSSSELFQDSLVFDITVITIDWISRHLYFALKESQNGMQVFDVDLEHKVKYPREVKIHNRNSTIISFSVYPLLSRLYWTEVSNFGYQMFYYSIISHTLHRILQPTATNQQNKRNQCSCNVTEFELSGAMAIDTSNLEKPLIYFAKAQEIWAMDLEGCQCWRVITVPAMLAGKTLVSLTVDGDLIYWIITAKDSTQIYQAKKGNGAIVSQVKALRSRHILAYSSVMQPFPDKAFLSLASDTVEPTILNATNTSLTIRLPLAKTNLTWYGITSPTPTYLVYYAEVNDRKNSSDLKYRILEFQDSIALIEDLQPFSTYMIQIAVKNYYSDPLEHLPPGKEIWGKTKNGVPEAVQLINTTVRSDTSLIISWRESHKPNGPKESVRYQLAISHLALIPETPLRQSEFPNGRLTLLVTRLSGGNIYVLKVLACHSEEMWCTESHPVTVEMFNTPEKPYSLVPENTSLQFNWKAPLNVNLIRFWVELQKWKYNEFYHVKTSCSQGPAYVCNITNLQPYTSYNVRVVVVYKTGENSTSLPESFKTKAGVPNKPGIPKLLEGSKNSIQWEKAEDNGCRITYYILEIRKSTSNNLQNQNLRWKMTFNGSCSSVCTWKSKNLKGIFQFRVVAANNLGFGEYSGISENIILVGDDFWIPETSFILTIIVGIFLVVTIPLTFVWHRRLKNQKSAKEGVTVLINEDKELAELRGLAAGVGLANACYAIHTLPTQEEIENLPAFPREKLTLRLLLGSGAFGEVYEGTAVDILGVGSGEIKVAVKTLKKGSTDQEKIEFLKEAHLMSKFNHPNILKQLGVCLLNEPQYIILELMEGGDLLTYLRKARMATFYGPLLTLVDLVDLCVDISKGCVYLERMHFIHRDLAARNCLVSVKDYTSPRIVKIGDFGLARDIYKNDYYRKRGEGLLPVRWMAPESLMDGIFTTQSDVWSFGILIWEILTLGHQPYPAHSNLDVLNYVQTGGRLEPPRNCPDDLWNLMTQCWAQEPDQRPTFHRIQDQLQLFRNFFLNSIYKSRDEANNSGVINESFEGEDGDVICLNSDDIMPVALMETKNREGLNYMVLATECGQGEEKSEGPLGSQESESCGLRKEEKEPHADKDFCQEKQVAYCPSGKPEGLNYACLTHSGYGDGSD
Chain of ALK (Q9UM73 19-1620): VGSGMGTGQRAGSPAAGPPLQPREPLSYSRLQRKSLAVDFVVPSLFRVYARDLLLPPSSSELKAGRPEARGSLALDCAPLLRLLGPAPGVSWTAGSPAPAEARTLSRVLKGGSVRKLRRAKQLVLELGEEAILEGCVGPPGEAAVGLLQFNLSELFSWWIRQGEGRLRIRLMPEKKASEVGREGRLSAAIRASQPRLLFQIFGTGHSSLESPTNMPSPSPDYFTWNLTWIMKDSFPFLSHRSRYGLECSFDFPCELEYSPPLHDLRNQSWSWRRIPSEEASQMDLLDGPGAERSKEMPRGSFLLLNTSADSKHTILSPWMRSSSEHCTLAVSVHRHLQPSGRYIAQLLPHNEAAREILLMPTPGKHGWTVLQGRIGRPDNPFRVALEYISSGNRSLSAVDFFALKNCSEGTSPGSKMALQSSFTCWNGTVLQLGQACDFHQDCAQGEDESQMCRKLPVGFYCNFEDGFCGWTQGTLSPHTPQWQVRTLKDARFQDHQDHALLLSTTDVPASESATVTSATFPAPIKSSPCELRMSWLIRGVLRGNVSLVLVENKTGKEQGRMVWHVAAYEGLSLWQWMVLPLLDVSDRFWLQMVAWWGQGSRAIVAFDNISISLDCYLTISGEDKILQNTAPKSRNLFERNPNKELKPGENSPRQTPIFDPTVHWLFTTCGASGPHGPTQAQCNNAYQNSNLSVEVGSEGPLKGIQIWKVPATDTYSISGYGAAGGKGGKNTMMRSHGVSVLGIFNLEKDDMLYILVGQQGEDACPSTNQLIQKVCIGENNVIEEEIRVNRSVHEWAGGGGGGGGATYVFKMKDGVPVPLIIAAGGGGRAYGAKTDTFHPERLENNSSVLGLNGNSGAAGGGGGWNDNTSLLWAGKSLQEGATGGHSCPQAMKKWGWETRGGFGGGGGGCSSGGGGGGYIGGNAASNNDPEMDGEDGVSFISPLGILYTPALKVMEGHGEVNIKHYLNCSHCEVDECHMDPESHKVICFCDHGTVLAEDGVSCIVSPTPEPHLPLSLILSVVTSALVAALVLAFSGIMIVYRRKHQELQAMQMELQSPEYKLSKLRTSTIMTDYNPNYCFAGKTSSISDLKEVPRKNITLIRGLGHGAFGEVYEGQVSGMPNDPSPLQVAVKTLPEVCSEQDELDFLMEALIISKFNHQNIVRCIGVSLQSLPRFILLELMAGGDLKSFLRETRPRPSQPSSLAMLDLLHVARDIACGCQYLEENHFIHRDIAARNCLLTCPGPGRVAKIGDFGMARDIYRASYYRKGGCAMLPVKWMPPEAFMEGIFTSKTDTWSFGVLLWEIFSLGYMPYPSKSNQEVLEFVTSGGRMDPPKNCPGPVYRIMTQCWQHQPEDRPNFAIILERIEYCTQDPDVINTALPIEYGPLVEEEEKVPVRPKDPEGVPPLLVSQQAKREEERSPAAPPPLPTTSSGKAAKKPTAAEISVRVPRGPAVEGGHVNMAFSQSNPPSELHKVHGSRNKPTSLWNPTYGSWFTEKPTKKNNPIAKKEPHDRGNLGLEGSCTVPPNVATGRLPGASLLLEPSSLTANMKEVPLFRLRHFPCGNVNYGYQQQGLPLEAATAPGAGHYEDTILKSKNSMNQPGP
Chain of TRKA (P04629 33-796): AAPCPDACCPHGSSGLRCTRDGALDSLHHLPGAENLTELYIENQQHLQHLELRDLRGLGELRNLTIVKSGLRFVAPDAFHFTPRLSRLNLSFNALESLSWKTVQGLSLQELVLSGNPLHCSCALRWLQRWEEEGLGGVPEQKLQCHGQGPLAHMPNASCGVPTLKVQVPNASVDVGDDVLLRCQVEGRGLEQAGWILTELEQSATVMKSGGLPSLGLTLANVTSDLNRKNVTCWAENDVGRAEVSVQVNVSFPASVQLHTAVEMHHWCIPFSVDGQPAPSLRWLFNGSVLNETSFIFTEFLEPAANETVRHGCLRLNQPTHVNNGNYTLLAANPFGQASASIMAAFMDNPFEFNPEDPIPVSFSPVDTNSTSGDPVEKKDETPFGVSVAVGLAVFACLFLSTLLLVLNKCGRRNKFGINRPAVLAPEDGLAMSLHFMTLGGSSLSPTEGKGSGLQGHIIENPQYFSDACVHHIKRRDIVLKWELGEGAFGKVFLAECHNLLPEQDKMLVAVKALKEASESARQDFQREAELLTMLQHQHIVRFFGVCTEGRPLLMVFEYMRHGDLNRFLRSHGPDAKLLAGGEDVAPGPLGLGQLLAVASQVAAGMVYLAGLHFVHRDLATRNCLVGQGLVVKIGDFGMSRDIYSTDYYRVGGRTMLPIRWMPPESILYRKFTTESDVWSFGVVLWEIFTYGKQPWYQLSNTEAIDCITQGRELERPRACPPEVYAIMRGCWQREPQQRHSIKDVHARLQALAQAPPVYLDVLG

SMILES | IC50 [1] [µM] | Kd (ALK) [nM] | Kd (JAK2) [nM] | Kd (TRKA) [nM] | Kd (ROS1) [nM] | IC50 [2] [µM] | IC50 [3] [nM]
O=C1NCCCOc2ccc(F)cc2CCc2ccn3ncc1c3n2 [Example 103, 12-fluoro-5,6,7,8,14,15-hexahydro-4H-1,16-ethenopyrazolo[4,3-g][1,5,9]benzoxadiazacyclotetradecin-4-one] | 1.96 | 28 | 1.9 |  |  | > 10 | 15
CN1Cc2cc(F)ccc2OCCNC(=O)c2cnc3ccc1nn23 [Example 42, 10-fluoro-7-methyl-7,8,15,16-tetrahydro-3,6-ethenoimidazo[5,1-f][1,4,7,8,10]benzoxatetraazacyclotridecin-17(14H)-one] | 3.4 |  |  | 0.088 |  | 2 | 4
CN1CCC(N2Cc3cc(F)ccc3OCCNC(=O)c3cnn4ccc2nc34)C1 (centres unmarked) [Example 105, 11-fluoro-14-(1-methylpyrrolidin-3-yl)-6,7,13,14-tetrahydro-1,15-ethenopyrazolo[4,3-f][1,4,8,10]benzoxatriazacyclotridecin-4(5H)-one] | > 5 |  |  |  |  | > 10 | 500
CC(C)(O)CN1Cc2cc(F)ccc2OCCNC(=O)c2cnn3ccc1nc23 [Example 101, 11-fluoro-14-(2-hydroxy-2-methylpropyl)-6,7,13,14-tetrahydro-1,15-ethenopyrazolo[4,3-f][1,4,8,10]benzoxatriazacyclotridecin-4(5H)-one] | > 10 |  |  |  |  | 6 | > 1000
C[C@H]1CNC(=O)c2cnn3ccc(nc23)N(C)Cc2cc(F)ccc2O1 [Example 97, (7S)-11-fluoro-7,14-dimethyl-6,7,13,14-tetrahydro-1,15-ethenopyrazolo[4,3-f][1,4,8,10]benzoxatriazacyclotridecin-4(5H)-one] | 1.42 |  |  |  |  | 6.5 | 0.3
Cc1nn2ccc3nc2c1C(=O)NCCOc1ccc(F)cc1CN3C [Example 40, 11-fluoro-3,14-dimethyl-6,7,13,14-tetrahydro-1,15-ethenopyrazolo[4,3-f][1,4,8,10]benzoxatriazacyclotridecin-4(5H)-one] | > 10 | 600 |  |  | 410 | > 10 | 204
CN1Cc2cc(F)cnc2OCCNC(=O)c2cnn3ccc1nc23 [Example 61, 11-fluoro-14-methyl-6,7,13,14-tetrahydro-1,15-ethenopyrazolo[4,3-f]pyrido[3,2-1][1,4,8,10]oxatriazacyclotridecin-4(5H)-one] | 3.9 |  |  |  |  | 3.75 | 0.6
C[C@@H]1COc2ccc(F)cc2CN(C)c2ccn3ncc(c3n2)C(=O)N1 [Example 95, (6R)-11-fluoro-6,14-dimethyl-6,7,13,14-tetrahydro-1,15-ethenopyrazolo[4,3-f][1,4,8,10]benzoxatriazacyclotridecin-4(5H)-one] | 4.11 |  |  |  |  | 2.67 | 0.4

The next lines start with results.

IC50 [1] [µM] | Kd (ALK) [nM] | Kd (JAK2) [nM] | Kd (TRKA) [nM] | Kd (ROS1) [nM] | SMILES | IC50 [2] [µM] | IC50 [3] [nM]
3.9 |  | 6.5 | 0.015 |  | CN1Cc2cc(F)ccc2OCCCNC(=O)c2cnn3ccc1nc23 [Example 75, 12-fluoro-15-methyl-5,6,7,8,14,15-hexahydro-4H-1,16-ethenopyrazolo[4,3-g][1,5,9,11]benzoxatriazacyclotetradecin-4-one] | 4.44 | 0.6
4.1 |  | 0.57 | 0.2 |  | O=C1NCCOc2ccc(F)cc2CNc2ccn3ncc1c3n2 [Example 50, 11-fluoro-6,7,13,14-tetrahydro-1,15-ethenopyrazolo[4,3-f][1,4,8,10]benzoxatriazacyclotridecin-4(5H)-one] | 6 | 74
> 10 |  | 7.8 | 0.082 |  | CC(C)N1Cc2cc(F)ccc2OCCNC(=O)c2cnn3ccc1nc23 [Example 45, 11-fluoro-14-(propan-2-yl)-6,7,13,14-tetrahydro-1,15-ethenopyrazolo[4,3-f][1,4,8,10]benzoxatriazacyclotridecin-4(5H)-one] | 8 | 0.35
2.8 |  | 3.7 | 0.086 |  | CCN1Cc2cc(F)ccc2OCCNC(=O)c2cnn3ccc1nc23 [Example 43, 14-ethyl-11-fluoro-6,7,13,14-tetrahydro-1,15-ethenopyrazolo[4,3-f][1,4,8,10]benzoxatriazacyclotridecin-4(5H)-one] | 1.7 | 2.6
0.281 | 14 | 0.74 |  |  | O=C1NCCOc2ccc(F)cc2C(CO)Nc2ccn3ncc1c3n2 (centres unmarked) [Example 98, 11-fluoro-13-(hydroxymethyl)-6,7,13,14-tetrahydro-1,15-ethenopyrazolo[4,3-f][1,4,8,10]benzoxatriazacyclotridecin-4(5H)-one] | 0.808 | 7.4
4.1 |  |  |  |  | CCCN1Cc2cc(F)ccc2OCCNC(=O)c2cnn3ccc1nc23 [Example 44, 11-fluoro-14-propyl-6,7,13,14-tetrahydro-1,15-ethenopyrazolo[4,3-f][1,4,8,10]benzoxatriazacyclotridecin-4(5H)-one] | 2.03 | 9.9
3.9 |  | 24 | 0.14 |  | CN1Cc2ccccc2OCCNC(=O)c2cnn3ccc1nc23 [Example 49, 14-methyl-6,7,13,14-tetrahydro-1,15-ethenopyrazolo[4,3-f][1,4,8,10]benzoxatriazacyclotridecin-4(5H)-one] | 7 | 6.7
7.8 | 270 |  | 6.5 | 62 | CC1Nc2ccn3ncc(c3n2)C(=O)NCCOc2ccc(F)c(Cl)c21 (centres unmarked) [Example 52, 12-chloro-11-fluoro-13-methyl-6,7,13,14-tetrahydro-1,15-ethenopyrazolo[4,3-f][1,4,8,10]benzoxatriazacyclotridecin-4(5H)-one] | 3.6 | 52
7.1 |  |  |  |  | O=C1NCCOc2ccc(F)cc2CN(C2CC2)c2ccn3ncc1c3n2 [Example 46, 14-cyclopropyl-11-fluoro-6,7,13,14-tetrahydro-1,15-ethenopyrazolo[4,3-f][1,4,8,10]benzoxatriazacyclotridecin-4(5H)-one] | 7 | 1.5
1.08 |  |  |  |  | CCC1Nc2ccn3ncc(c3n2)C(=O)NCCOc2ccc(F)cc21 (centres unmarked) [Example 85, 13-ethyl-11-fluoro-6,7,13,14-tetrahydro-1,15-ethenopyrazolo[4,3-f][1,4,8,10]benzoxatriazacyclotridecin-4(5H)-one] | 0.928 | 0.9
> 10 | > 30000 |  | 1900 | 1900 | CC1Oc2ccn3ncc(c3n2)C(=O)NCCOc2ccc(F)c(Cl)c21 (centres unmarked) [Example 11-1, 12-chloro-11-fluoro-13-methyl-6,7-dihydro-13H-1,15-ethenopyrazolo[4,3-f][1,10,4,8] benzodioxadiazacyclotridecin-4(5H)-one] | > 10 | > 10000
1.2 |  |  |  |  | CC(C)C1Nc2ccn3ncc(c3n2)C(=O)NCCOc2ccc(F)cc21 (centres unmarked) [Example 67, 11-fluoro-13-(propan-2-yl)-6,7,13,14-tetrahydro-1,15-ethenopyrazolo[4,3-f][1,4,8,10]benzoxatriazacyclotridecin-4(5H)-one] | 1.23 | 2.8
